Laboratory results published in US5334595A, “Pyrazoloquinolones as anticancer agents” (priority 1992, dated 1994).
Where two headings read alike, the source gives them in different places.

Legend:
[1] = system: P388 murine leukemia cells; assay: In vitro cytotoxicity, continuous (48-hour) exposure of P388 cells; format: cell-based; conditions: Mus musculus, read-out: in vitro cytotoxicity IC50, cont. exp.
Experimental: In vitro cytotoxicity was assayed by determining cell survival following exposure of P388 murine leukemia cells to a range of test compound concentrations. Cytotoxicity was quantitated following either a one-hour exposure or continuous exposure of P388 cells to test compound.
A Manual of Basic Technique. […] Briefly, following drug exposure cells were plated in soft agar and incubated (37°, 5% CO2) for 7-10 days during which time viable cells form visible colonies. Cytotoxicity following continuous exposure of cells to test compound was assayed by quantitating total P388 cells on a Coultier Counter following a 48-hour co-incubation of test compound with cells. P388 cells were maintained in log phase throughout the duration of cytotoxicity assays.
The percentage of cells surviving relative to an untreated control was graphed as a function of increasing drug concentration.

[2] = In vivo antitumor assay, P388(ip); set-up: species or system mice; conditions: mouse, in vivo, qd 1,5,9
From the text: (§1) Mice: Inbred: C3H/He and NCR-nu; and Hybrids: B6D2F1 (C57BL/6 females×DBA/2 males, CD2F1 (Balb/c females×DBS/2 males) and B6C3fl (C57BL/6×C3H) were bred at Wayne State University from strains obtained from the Frederick Cancer Research Facility, Frederick, Maryland or purchased from commercial suppliers.
(§2) Tumors: Murine Tumor: P388 and an adriamycin-resistant (ADR) subline P388/ADR leukemia and the following transplantable solid tumors of mice were used for in vivo testing: B16 melanoma (B16), pancreatic ductal adenocarcinoma No. 03 (Pane 03), colon adenocarcinoma No. 38 (colo 38), lung carcinoma No. 12 (LC 12), mammary ductal adenocarcinoma No. 16/C (Mam16C) and an adriamycin-resistant subline Mam16C/ADR. Human tumor: A single human tumor, mammary carcinoma MX-1 was used for in vivo testing. All tumors are in the Developmental Therapeutics Program frozen tumor respository, maintained by the Biological Testing Branch, Frederick Maryland. Each has a detailed description, code identification number, and list of references at the National Tumor Repository. Murine tumors were maintained in the mouse strain of origin and were transplanted in the appropriate F1 hydrid (or the strain of origin) for therapy trials. Human mammary carcinoma MX-1 (MX1) was maintained as a subcutaneous implant in either athymic Swiss (Cr: NIH(S)-nu) or athymic random bred (NCR-nu) mice and transplanted in NCR-nu for therapy trials.
(§3) For P388 and P388/ADR leukemia studies the tumor cells were implanted either interperitoneally (IP) or intravenously (IV) on day zero and treatment was started on day one. For B16 melanoma (B16) studies, the tumor cells were implanted IP on day zero and treatment was started on day one. Titered controls were also included to facilitate the calculation of tumor cell kill. For mammary carcinoma MX-1 studies, tumors were implanted with 1) subcutaneously (sc) (14-mg fragment of sc donor tumor) in the axillary region or 2) under the subrenal capsule (SRC) (10×10×10 ocular micrometer unit fragment of sc donor tumor).
(§4) Quantitative end points used to assess antitumor activity included % Increased Life Span (% ILS), Tumor Cell Kill (Log10 kill), and Tumor Growth Inhibition (T/C). Long Term Survivors (45 or 60 day) were excluded from calculations of %ILS and Tumor Cell Kill.
(§5) Endpoints were calculated as follows: [formula] where Dt is the median day of death for treated and Dc is the median day of death for control groups. A % ILS ≥20 or ≥25 for P388 and B16 intraperitoneal models, respectively, is indicative of a significant degree of antitumor activity. A % ILS ≥75 or ≥50 for P388 and B16 intraperitoneal models, , respectively, is indicative of a high degree of antitumor activity and is the level used by National Cancer Institute to justify further development if other requirements are met (termed DN-2 level activity). Minimum quantitative activity limits for additional P388 models (e.g. P388/ADR and P388, IV) have not been defined.

P388 leukemia = assay: In vivo antitumor assay, P388(ip); set-up: species or system mice; conditions: qd 1,5,9
From the text: as §1, §2, §3, §4, §5

[3] = system: colon adenocarcinoma No. 38 (colo 38); assay: In vivo antitumor assay, Colo38(sc); set-up: species or system mice
From the text: as §1, §2
(§6) Chemotherapy: For pancreatic ductal adenocarcinoma No. 3, colon adenocarcinoma No. 38 (colo 38), lung carcinoma No. 12 LC 12) and both adriamycin-sensitive (RP) and-resistant (ADR) mammary ductal adenocarcinoma No. 16 (Mam16) tumors, bilateral tumor implants were used to help ensure a more uniform tumor burden per mouse (thus reducing the requirement for greater numbers of mice per group). The animals necessary to begin an experiment were pooled, implanted bilaterally s.c. on day zero with 30-60 mg tumor fragments using a 12-gauge trocar, and again pooled before randomization to the various treatment and control groups. Chemotherapy was started within three days after tumor implantation while the number of cells per mouse was relatively small (1×10^7 -1×10^8 cells).
as §4
(§7) Tumors were measured with a caliper once or twice weekly (as needed) until either tumors exceeded 1600 mg or cure was assured. Tumor weights were estimated from two-dimensional measurements: Tumor Weight (mg)=(a×b^2) / 2, where a and b are the tumor length and width (ram) respectively. Measurements were carried out simultaneously in both treatment and control groups. When the control group tumors reached approximately 750-1500 mg in size (median of group), the median tumor weight of each group was determined (including zeros). The T/C value in percent is an indication of antitumor effectiveness. The % T/C was calculated from the following formula for solid murine tumor models: [formula] where T and C are median tumor weights of the treatment and control groups, respectively. […] A T/C value <10% is indicative of a high degree of antitumor activity and is the level used by National Cancer Institute to justify further development if other requirements are met (termed DN-2 level activity). By convention the T/C value for the mammary carcinoma MX-1 models is calculated by the parameter of change in tumor weight .

[4] = In vivo antitumor assay, Colo38(sc); set-up: species or system mice; conditions: mouse, in vivo
From the text: as §1, §2, §6, §4, §7

[5] = drug iv, sc, iv, qd 3-16, exp 1038
[6] = P388, continuous exposure (48-hour)
[7] = drug iv, qd 3-4, bid 5,6,12-17, exp 1036
[8] = drug iv,sc: iv, qd 3-9, sc, qd 11-19, exp 1163

Molecule `Cc1cc(-c2c(F)cc3c4nn(CCN(C)C)c(=O)c-4cn(C4CC4)c3c2F)cc(C)n1.O=C(O)/C=C/C(=O)O` [Example 1, 5-Cyclopropyl-6,8-difluoro-2,5-dihydro-2-[2-(dimethylamino)-ethyl]-7-(2,6-dimethyl-4-pyridinyl)-3H-pyrazolo[4,3-c]quinolin-3-one (E)-2-butendioate (1:1)] has an IC50 ([1]; P388, 48 h) of 40 nM, an MTD ([2]; drug ip) of 78 mg/kg and an MTD ([2]; drug iv) of 117 mg/kg. The ILS % (P388 leukemia; drug ip) was 155%, the “Log Kill” value (P388 leukemia; drug ip) was 11 and the ILS % (P388 leukemia; drug iv) was 170%. The “Log Kill” value (P388 leukemia; drug iv) was 12, the “Log Kill” value ([3]; drug iv, qd 3,7,11, exp 1038) was 0.60 and the T/C % ([3]; drug iv, qd 3,7,11, exp 1038) was 14%. For the same molecule, the “Log Kill” value [3, 5] was 1.2, the T/C % [3, 5] was 0% and the MTD ([4]; drug iv, qd 3,7,11, exp 1038) was 78 mg/kg. The MTD [4, 5] was 58 mg/kg.

With `Cc1cc(-c2c(F)cc3c4nn(CCCN(C)C)c(=O)c-4cn(C4CC4)c3c2F)cc(C)n1` [Example 14] the IC50 [1, 6] was 380 nM, the MTD ([2]; drug ip) was 42 mg/kg and the MTD ([2]; drug iv) was 64 mg/kg. The ILS % (P388 leukemia; drug ip) was 85%, the “Log Kill” value (P388 leukemia; drug ip) was 6.1 and the ILS % (P388 leukemia; drug iv) was 70%. The “Log Kill” value (P388 leukemia; drug iv) was 5.0, the “Log Kill” value ([3]; drug iv, qd 3,12-14, exp 905) was 0.54 and the T/C % ([3]; drug iv, qd 3,12-14, exp 905) was 38%. For the same molecule, the MTD ([4]; drug iv, qd 3,12-14, exp 905) was 133 mg/kg.

With `Cc1cc(-c2c(F)cc3c4nn(CCNCCO)c(=O)c-4cn(C4CC4)c3c2F)cc(C)n1` [Example 17] the IC50 [1, 6] was 1200 nM, the MTD ([2]; drug ip) was 180 mg/kg and the MTD ([2]; drug iv) was 120 mg/kg. The ILS % (P388 leukemia; drug ip) was 50%, the “Log Kill” value (P388 leukemia; drug ip) was 3.5 and the ILS % (P388 leukemia; drug iv) was 5%. The “Log Kill” value (P388 leukemia; drug iv) was 0.35.

For `Cc1cc(-c2c(F)cc3c4nn([C@H]5CC[C@@H](N(C)C)CC5)c(=O)c-4cn(C4CC4)c3c2F)cc(C)n1` [Example 51a], the MTD ([2]; drug ip) was 9.9 mg/kg, the MTD ([2]; drug iv) was 39.9 mg/kg and the ILS % (P388 leukemia; drug ip) was 65%. The “Log Kill” value (P388 leukemia; drug ip) was 4.7, the ILS % (P388 leukemia; drug iv) was 70% and the “Log Kill” value (P388 leukemia; drug iv) was 5.1. It also gave a T/C % [3, 7] of 39% and an MTD [4, 7] of 63 mg/kg.

`Cc1cc(-c2c(F)cc3c4nn([C@H]5CC[C@H](N(C)C)CC5)c(=O)c-4cn(C4CC4)c3c2F)cc(C)n1` [Example 51b] showed an MTD ([2]; drug ip) of 66 mg/kg, an MTD ([2]; drug iv) of 120 mg/kg and an ILS % (P388 leukemia; drug ip) of 85%. The “Log Kill” value (P388 leukemia; drug ip) was 6.2, the ILS % (P388 leukemia; drug iv) was 85% and the “Log Kill” value (P388 leukemia; drug iv) was 6.2. It also gave a T/C % ([3]; drug iv, qd 3-4,15,17, bid 5.7, exp 1036) of 13% and an MTD ([4]; drug iv, qd 3-4,15,17, bid 5.7, exp 1036, MTD not achieved, maximum dose tested) greater than 220 mg/kg.

For `Cc1cc(-c2c(F)cc3c4nn([C@H]5CC[C@@H](N)CC5)c(=O)c-4cn(C4CC4)c3c2F)cc(C)n1` [Example 56a, 2-(Cis-4-Aminocyclohexyl)-5-cyclopropyl-6,8-difluoro-2,5-dihydro-7-(2,6-dimethyl-4-pyridinyl)-3H-pyrazolo-[4,3-c]quinolin-3-one], the T/C % [3, 8] was 40% and the MTD [4, 8] was 137 mg/kg.
